The values that follow come from patent US12187721B2, “Protein tyrosine phosphatase inhibitors” (Array BioPharma Inc., priority 2018, dated 2025).

Experiment [1] concerns the target T1, full-length SHP2 (His6-tagged SHP2(2-527)) (Homo sapiens, UniProt Q06124).
T1 construct: His6-tagged SHP2(2-527); His6; made in house; host or cells: E. coli
Kind of experiment: SHP2 Enzymatic Assay (fluorescence intensity kinetic assay, DiFMUP hydrolysis). Type of experiment: biochemical. The essentials:
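1 nM His6-SHP2(2-527), activated by 1 μM bis-phosphopeptide, hydrolysed 50 μM DiFMUP in 25 mM HEPES pH 7.4 with 1 mM DTT, 50 mM KCl and 2% DMSO. DiFMU fluorescence (Ex 355/Em 460 nm) was read kinetically for 15 min at ambient temperature.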

Experiment [2] deals with ERK1/2 (Thr202/Tyr204) phosphorylation in KYSE520 cells. Kind of experiment: Cellular Phospho-p44/42 MAPK (Erk 1/2) (Thr202/Tyr204) Assay (In-Cell Western). Type of experiment: cell-based. Conditions: Homo sapiens, KYSE-520, 1 h, read-out: Biological Example 2 IC50 (nM). The method, then: KYSE520 cells were obtained from DSMZ and grown in RPMI supplemented with 10% fetal bovine serum, pennicillin/streptomycin, 2 mM L-alanyl-L-glutamine dipeptide in 0.85% NaCl (Glutamax™), non-essential amino acids, and sodium pyruvate. Cells were plated in 96-well plates at 30,000 cells/well and allowed to attach overnight at 37° C./5% CO2. Cells were treated with compounds prepared as a 10-point, 1:3 dilution series (range: 20 μM-1 nM), with a final DMSO concentration of 0.5%. After 1 hour incubation, cells were fixed in 3.7% formaldehyde in Dulbecco's phosphate-buffered saline (“dPBS”) at room temperature for 20 minutes. Cells were then washed with dPBS and permeabilized in 100% MeOH at room temperature for 10 minutes. Following permeabilization, cells were washed in dPBS and incubated in LI-COR Blocking Buffer (LI-COR Biosciences, Cat #927-40000) for 1 hour or longer. Plates were then incubated with an antibody specific for the MEK-dependent ERK1/2 phosphorylation sites, threonine 202 and tyrosine 204 (Cell Signaling Technologies; Cat #9101), downstream of SHP2 in the MAP kinase signal transduction pathway, as well as GAPDH (Millipore; Cat #MAB374). pErk1/2 (Thr202/Tyr204) antibody was diluted in LI-COR blocking buffer containing 0.05% polysorbate-20 (Tween-20) at 1:250; GAPDH was diluted at 1:2,500. The plates were incubated overnight at 4° C. After washing with PBS/0.05% Tween-20, the cells were incubated with fluorescently-labeled secondary antibodies (Anti-rabbit-Alexa Flour680, Invitrogen Cat #A21109; Anti-mouse-IRDye800CW, Li-cor Bioscieces Cat #926-32210, both at 1:1000 dilution) for 1 hour. Cells were then washed, as above, and analyzed for fluorescence at both 680 nm and 800 nm wavelengths using the Aerius Infrared Imaging System (LI-COR Biosciences, Model 9250). Phosphorylated Erk1/2 (Thr202/Tyr204) signal was normalized to GAPDH signal for each well. IC50 values were calculated from the normalized values using a 4-parameter fit in BioAssay software. […] The reported IC50 in Table 2 may be from a single assay or the mean of multiple assays.

Where [3] appears, read: full-length SHP2 with 1 μM activating peptide, 50 μM DiFMUP, single assay or mean of multiple assays, read-out: Biological Example 1 IC50.

The structures appear in SMILES notation. Counter-ions that a name gives are not always drawn. Like-named read-outs stand apart in the source and are kept apart here.

T1 sequence (Q06124 2-527): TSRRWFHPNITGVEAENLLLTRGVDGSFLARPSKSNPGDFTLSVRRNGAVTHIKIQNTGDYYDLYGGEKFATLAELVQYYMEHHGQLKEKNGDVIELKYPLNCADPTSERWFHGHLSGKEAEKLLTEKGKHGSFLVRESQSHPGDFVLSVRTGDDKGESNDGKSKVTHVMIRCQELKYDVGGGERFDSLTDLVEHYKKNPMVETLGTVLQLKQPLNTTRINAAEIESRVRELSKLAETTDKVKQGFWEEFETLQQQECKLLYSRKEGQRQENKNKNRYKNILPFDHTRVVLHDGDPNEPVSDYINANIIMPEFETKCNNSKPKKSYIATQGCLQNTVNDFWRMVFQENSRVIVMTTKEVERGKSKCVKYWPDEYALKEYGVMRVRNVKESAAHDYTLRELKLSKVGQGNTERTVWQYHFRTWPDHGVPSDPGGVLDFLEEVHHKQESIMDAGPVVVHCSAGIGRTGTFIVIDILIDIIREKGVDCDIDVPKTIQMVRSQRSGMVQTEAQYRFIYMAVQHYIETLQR

For the molecule `CC1(N)CCN(c2cnc3nc(Sc4ccnc(N)c4Cl)ccc3n2)CC1` [Example 1, 4-((2-(4-amino-4-methylpiperidin-1-yl)pyrido[2,3-b]pyrazin-6-yl)thio)-3-chloropyridin-2-amine], the half-inhibitory concentration (IC50) in experiment [1] (setting [3]) turned out to be 33 nM; in experiment [2], 59 nM.

For the molecule `C[C@@H]1OCC2(CCN(c3cnc4nc(Sc5cccc(Cl)c5Cl)ccc4n3)CC2)[C@@H]1N` [Example 4, (3S,4S)-8-(6-((2,3-dichlorophenyl)thio)pyrido[2,3-b]pyrazin-2-yl)-3-methyl-2-oxa-8-azaspiro[4,5]decan-4-amine], the half-maximal inhibitory concentration (IC50) in experiment [1] is 64 nM; in experiment [2], 550 nM.

Take `C[C@@H]1OCC2(CCN(c3cnc4nc(Sc5ccnc(N)c5Cl)ccc4n3)CC2)[C@@H]1N` [Example 13, (3S,4S)-8-(6-((2-amino-3-chloropyridin-4-yl)thio)pyrido[2,3-b]pyrazin-2-yl)-3-methyl-2-oxa-8-azaspiro[4,5]decan-4-amine]: the IC50 in experiment [1] is 84 nM; in experiment [2], 79 nM.

In the case of `C[C@@H]1OCC2(CCN(c3cnc4nc(Sc5ccnc(N6CCCC6)c5Cl)ccc4n3)CC2)[C@@H]1N` [Example 25, (3S,4S)-8-(6-((3-chloro-2-(pyrrolidin-1-yl)pyridin-4-yl)thio)pyrido[2,3-b]pyrazin-2-yl)-3-methyl-2-oxa-8-azaspiro[4.5]decan-4-amine], the IC50 was found to be 100 nM in experiment [1] and 650 nM in experiment [2].

As for `CNc1nccc(Sc2ccc3nc(N4CCC5(CC4)CO[C@@H](C)[C@H]5N)cnc3n2)c1Cl` [Example 33, (3S,4S)-8-(6-((3-chloro-2-(methylamino)pyridin-4-yl)thio)pyrido[2,3-b]pyrazin-2-yl)-3-methyl-2-oxa-8-azaspiro[4.5]decan-4-amine], the IC50 in experiment [1] came out at 100 nM; in experiment [2], 80 nM.

For the molecule `Nc1nccc(Sc2ccc3nc(N4CCC[C@@H](N)CC4)cnc3n2)c1Cl` [Example 41, (R)-1-(6-((2-amino-3-chloropyridin-4-yl)thio)pyrido[2,3-b]pyrazin-2-yl)azepan-4-amine], the half-maximal inhibitory concentration (IC50) in experiment [1] is 56 nM; in experiment [2], 110 nM.

Take `Cc1nccc(Sc2ccc3nc(N4CCC(N)(CO)CC4)cnc3n2)c1Cl` [Example 57, (4-amino-1-(6-((3-chloro-2-methylpyridin-4-yl)thio)pyrido[2,3-b]pyrazin-2-yl)piperidin-4-yl)methanol]: the half-maximal inhibitory concentration (IC50) was found to be 49 nM in experiment [1] and 91 nM in experiment [2].

As for `Cc1nccc(Sc2ccc3nc(N4[C@H]5CC[C@H]4CC(N)C5)cnc3n2)c1Cl` (stereo partly drawn) [Example 67, (1R,3s,5S)-8-(6-((3-chloro-2-methylpyridin-4-yl)thio)pyrido[2,3-b]pyrazin-2-yl)-8-azabicyclo[3.2.1]octan-3-amine dihydrochloride], the half-inhibitory concentration (IC50) in experiment [1] was determined as 42 nM; in experiment [2], 48 nM.

Consider `C[C@@H]1OCC2(CCN(c3cnc4nc(Sc5ccnc(N6CCC[C@H]6CO)c5Cl)ccc4n3)CC2)[C@@H]1N` [Example 71, ((S)-1-(4-((2-((3S,4S)-4-amino-3-methyl-2-oxa-8-azaspiro[4.5]decan-8-yl)pyrido[2,3-b]pyrazin-6-yl)thio)-3-chloropyridin-2-yl)pyrrolidin-2-yl)methanol], for which the 50% inhibitory concentration (IC50) in experiment [1] came out at 120 nM; in experiment [2], 176 nM.

Regarding `Nc1nccc(Sc2ccc3nc(N4CCC5(CC4)Cc4ccccc4[C@H]5N)cnc3n2)c1Cl` [Example 76, (S)-1′-(6-((2-amino-3-chloropyridin-4-yl)thio)pyrido[2,3-b]pyrazin-2-yl)-1,3-dihydrospiro[indene-2,4′-piperidin]-1-amine], the IC50 in experiment [1] (setting [3]) amounted to 28 nM; in experiment [2], 8 nM.

With `C[C@@H]1OCC2(CCN(c3cnc4nc(Sc5ccnc(N6CCC(O)CC6)c5Cl)ccc4n3)CC2)[C@@H]1N` [Example 78, 1-(4-((2-((3S,4S)-4-amino-3-methyl-2-oxa-8-azaspiro[4.5]decan-8-yl)pyrido[2,3-b]pyrazin-6-yl)thio)-3-chloropyridin-2-yl)piperidin-4-ol], the IC50 in experiment [1] was found to be 331 nM; in experiment [2] it was 87 nM.

Regarding `CN[C@H]1CCCN(c2cnc3nc(Sc4ccnc(N)c4Cl)ccc3n2)CC1` [Example 91, (S)-1-(6-((2-amino-3-chloropyridin-4-yl)thio)pyrido[2,3-b]pyrazin-2-yl)-N-methylazepan-4-amine], the values for the IC50 in experiment [1] and in experiment [2] were 106 nM and 317 nM, respectively.

Consider `N[C@@H]1c2cccnc2CC12CCN(c1cnc3nc(Sc4ccnc(NCCO)c4Cl)ccc3n1)CC2` [Example 108, (S)-2-((4-((2-(5-amino-5,7-dihydrospiro[cyclopenta[b]pyridine-6,4′-piperidin]-1′-yl)pyrido[2,3-b]pyrazin-6-yl)thio)-3-chloropyridin-2-yl)amino)ethan-1-ol], for which the figures for the concentration for half-maximal inhibition (IC50) in experiment [1] and in experiment [2] were 84 nM and 11 nM, respectively.

Turning to `Nc1nccc(Sc2ccc3nc(N4CCC5(CC4)Cc4ncc(F)cc4[C@H]5N)cnc3n2)c1Cl` [Example 117, (S)-1′-(6-((2-amino-3-chloropyridin-4-yl)thio)pyrido[2,3-b]pyrazin-2-yl)-3-fluoro-5,7-dihydrospiro[cyclopenta[b]pyridine-6,4′-piperidin]-5-amine], the concentration for half-maximal inhibition (IC50) in experiment [1] (setting [3]) amounted to 50 nM; in experiment [2] it was 6 nM.

Regarding `Nc1nccc(Sc2ccc3nc(N4CCC5(CC4)Cc4ncccc4[C@H]5N)cnc3n2)c1Cl` [Example 125, (S)-1′-(6-((2-amino-3-chloropyridin-4-yl)thio)pyrido[2,3-b]pyrazin-2-yl)-5,7-dihydrospiro[cyclopenta[b]pyridine-6,4′-piperidin]-5-amine], the IC50 in experiment [1] (setting [3]) was 38 nM; in experiment [2], 5 nM.

With `CC(C)(C#N)CNc1nccc(Sc2ccc3nc(N4CCC(C)(N)CC4)cnc3n2)c1Cl` [Example 134, 3-((4-((2-(4-amino-4-methylpiperidin-1-yl)pyrido[2,3-b]pyrazin-6-yl)thio)-3-chloropyridin-2-yl)amino)-2,2-dimethylpropanenitrile], the IC50 in experiment [1] is 238 nM; in experiment [2], 810 nM.

For the molecule `N[C@@H]1c2ccccc2CC12CCN(c1cnc3nc(Sc4ccnc5c4C(F)(F)C(=O)N5)ccc3n1)CC2` [Example 142, (S)-4-((2-(1-amino-1,3-dihydrospiro[indene-2,4′-piperidin]-1′-yl)pyrido[2,3-b]pyrazin-6-yl)thio)-3,3-difluoro-1,3-dihydro-2H-pyrrolo[2,3-b]pyridin-2-one], the half-inhibitory concentration (IC50) worked out at 26 nM in experiment [1] and 4 nM in experiment [2].

On to `N[C@@H]1c2cccnc2CC12CCN(c1cnc3nc(Sc4cccnc4C(F)(F)F)ccc3n1)CC2` [Example 163, (S)-1′-(6-((2-(trifluoromethyl)pyridin-3-yl)thio)pyrido[2,3-b]pyrazin-2-yl)-5,7-dihydrospiro[cyclopenta[b]pyridine-6,4′-piperidin]-5-amine], for which the IC50 in experiment [1] amounted to 52 nM; in experiment [2] it was 30 nM.

In the case of `Cc1ccc2c(c1)[C@@H](N)C1(CCN(c3cnc4nc(Sc5ccnc(N)c5Cl)ccc4n3)CC1)C2` [Example 178, (S)-1′-(6-((2-amino-3-chloropyridin-4-yl)thio)pyrido[2,3-b]pyrazin-2-yl)-6-methyl-1,3-dihydrospiro[indene-2,4′-piperidin]-1-amine], the values for the IC50 in experiment [1] (setting [3]) and in experiment [2] were 57 nM and 17 nM, respectively.

As a reminder, the IC50 is the point on the concentration scale where inhibition reaches its midpoint.
